Experimental data from article PMC8863796 (Communications Biology, 2022).

How the values were obtained:
[1] = biological target: T1, SARS-CoV-2 RdRp complex (nsp12/nsp7/nsp8) (Severe acute respiratory syndrome coronavirus 2, UniProt P0DTD1); assay: Extension reactions of RNA template-loop-primers with nucleotide analogue triphosphates; format: biochemical; details: single-base extension of RNA template-loop-primers
T1 construct: made in house
Protocol: In total, 10 µL of 10 µM RNA template-loop-primers (5′-[…]-3′ for RDV-TP extension; 5′-[…]-3′ for SOF-TP extension) in 1 × RdRp reaction buffer was annealed by heating to 75 °C for 3 min and cooling to room temperature. In all, 5 µL of 8 µM RdRp complex (nsp12/nsp7/nsp8)[11],[20] in 1× reaction buffer was added to the annealed RNA template-loop-primer solution and incubated for an additional 10 min at room temperature. Finally, 5 µL of a solution containing 0.2 mM RDV-TP or 2 mM SOF-TP in 1× reaction buffer was added, and incubation was carried out for 2 h at 30 °C. The final concentrations of reagents in the 20 µL extension reactions were 2 µM nsp12/nsp7/nsp8, 5 µM RNA template-loop-primer, 50 µM RDV-TP, and 500 µM SOF-TP. The 1× reaction buffer contains the following reagents: 10 mM Tris-HCl pH 8, 10 mM KCl, 2 mM MgCl2 and 1 mM β-mercaptoethanol. Desalting of the reaction mixture was performed with an Oligo Clean & Concentrator kit (Zymo Research) resulting in ~10 µL purified aqueous RNA solutions. 1 µL of each solution was subjected to MALDI-TOF MS (Bruker ultrafleXtreme) analysis. The remaining ~9 µL extended template-loop-primer solutions were used to test exonuclease activity.
The RNA template-loop primer (5′-[…]-3′) was annealed at 75 °C for 3 min and cooled to room temperature for 25 min in 1× ThermoPol buffer before adding the other ingredients. The final 20 µL mixture containing 5 µM of the RNA template-loop primer, 250 µM, 500 µM or 1 mM AT-9010, 2 mM MnCl2 and 0.2 unit Therminator II in 1× ThermoPol buffer was incubated in a thermal cycler using the following protocol (28 cycles of 45 °C for 30 s, 55 °C for 30 s, 65 °C for 30 s). Desalting of the reaction mixture was performed with an Oligo Clean & Concentrator kit (Zymo Research) resulting in ~10 µL purified aqueous RNA solutions. 1 µL of each solution was subjected to MALDI-TOF MS (Bruker ultrafleXtreme) analysis. The remaining ~9 µL extended template-loop-primer solutions were used to test exonuclease activity. […]

[2] = biological target: SARS-CoV-2 exonuclease complex (nsp14/nsp10) (Severe acute respiratory syndrome coronavirus 2, UniProt P0DTD1); set-up: method as in earlier work; details: previously demonstrated; cited from earlier work

Row | Compound | incorporation into RNA (template base opposite) [1] | inhibition of SARS-CoV-2 exonuclease [2]
1 | C[C@@]1(F)[C@H](O)[C@@H](COP(=O)(O)OP(=O)(O)OP(=O)(O)O)O[C@H]1n1cnc2c(=O)[nH]c(N)nc21 [AT-9010, 2’-fluoro-2’-methyl guanosine-5’-triphosphate] | incorporated opposite C | 
2 | NC(=O)c1nc(F)cn([C@@H]2O[C@H](COP(=O)(O)OP(=O)(O)OP(=O)(O)O)[C@@H](O)[C@H]2O)c1=O [Favipiravir-RTP, Favipiravir-ribofuranosyl-5’-triphosphate] | incorporated into RNA opposite C or U | 
3 | O=c1nc(NO)ccn1[C@@H]1O[C@H](COP(=O)(O)OP(=O)(O)OP(=O)(O)O)[C@@H](O)[C@H]1O [NHC-TP, N^4-hydroxycytidine-5’-triphosphate] | incorporated opposite A or G | 
4 | COC[C@H]1C[C@@H](c2nc(-c3ccc4c(c3)COc3cc5c(ccc6nc([C@@H]7CC[C@H](C)N7C(=O)[C@@H](NC(=O)OC)C(C)C)[nH]c65)cc3-4)c[nH]2)N(C(=O)[C@H](NC(=O)OC)c2ccccc2)C1 [Velpatasvir] |  | can inhibit the SARS-CoV-2 exonuclease
